Measured values: a melting point compilation (Tetko et al.; mined from patent text by program, amines drawn as free bases though some values may be those of a salt)

| Structure (SMILES) | melting point |
| --- | --- |
| Cc1nc(-c2ccc3c(c2)CCCC3)c(CC(Cl)C(=O)O)o1 (centres undefined) | 141 to 142 °C |
| CCOC(=O)C1=C(C)NC(C)=C(C(=O)OCC)C1c1ccccc1/C=C/C#N | 172 to 173 °C |
| O=C(NN1CCCNC1=O)OCc1ccccc1 | 161 to 163 °C |
| CC(=O)OC1CSC(Oc2cccc3c2nc(C)n3C)C(OC(C)=O)C1OC(C)=O (centres undefined) | 192 °C |
| CCCCc1nc(C(=O)CC)c(C#N)[nH]1 | 84 to 85 °C |
| c1ccc(-c2nc3ccccc3n3cncc23)cc1 | 165 to 167 °C |
| CCCCCCCCCCCc1cc2ccc(C(=O)OCCCC)cc2[nH]1 | 73 to 76 °C |
| COc1cccc2c1nc(C(F)F)n2-c1nc(Nc2cncnc2)nc(N2CCOCC2)n1 | 293 to 295 °C |
| C=C(c1ccsc1C(=O)O)c1cc(C(C)(C)C)cc2c1CCC2(C)C | 146 to 148 °C |
| CC#CCOc1ccc(S(=O)(=O)NC(Cc2c[nH]c3ccc(C)cc23)C(=O)O)cc1 (centres undefined) | 45 to 46 °C |
| O=c1cc(C(F)(F)F)nc(Nc2cc(C(F)(F)F)ccc2C(F)(F)F)n1C1CCCCC1 | 154 to 156 °C |
| O=C(O)c1ccc2c(CCCCN3CC=C(c4ccccc4)CC3)c[nH]c2c1 | 268 °C |
| Cn1ccc2ccc(-c3ccc(C(F)(F)F)cc3)cc21 | 100 °C |
| CCn1c(=O)c2c(-c3nc(C)no3)ncn2c2cccnc21 | 251 to 252 °C |
| CC12CC[C@](C(=O)N3CCC4(C=Cc5ccccc54)CC3)(OC1=O)C2(C)C | 215 to 216 °C |
| COc1cc([N+](=O)[O-])c(C=O)cc1OCc1ccccc1 | 131 to 132 °C |
| C/C(=C\c1ccc(OC(C)C)cc1Oc1ncc(C(F)(F)F)cc1Cl)C(=O)NS(=O)(=O)NC1CCC(C)CC1 (centres undefined) | 177 °C |
| CCOC(=O)C1(N)C=CNN1c1cc(Cl)cc(Cl)c1 (centres undefined) | 157 to 158 °C |
| O=C1Nc2cccnc2C12COc1cc3c(cc12)OCCO3 (centres undefined) | > 250 °C |
| Cc1cc(F)ccc1-c1cc(NCCNC(=O)NC2CCCCC2)nc2c1C=NC(=O)C2c1c(F)cccc1F (centres undefined) | 178 to 183 °C |
| CCOc1ccc(C(=O)Nc2ccc3ccc(Cl)nc3n2)cc1 | 208 °C |
| O=C(O)C[C@@H](NC(=O)CN1C[C@H](c2ccccc2)Oc2ccc(NC(=O)NCc3ccccc3)cc2C1=O)c1ccccc1 | 138 to 140 °C |
| COc1cccc(NC(=O)Nc2ccc(N3CCN(C(=O)Nc4ccc(OCCO)cc4C(F)(F)F)CC3)cc2)c1OC | 135 to 138 °C |
| Cc1nc(N2CCC(N(C)C)CC2)c2nc(-c3ccccc3)cc-2[nH]1 | 262 to 263 °C |
| Cc1cc(C)c(Nc2nc(C)ncc2S(=O)(=O)c2ccc(-c3ncccn3)cc2)c(C)c1 | 215 to 217 °C |
| COC(=O)COc1ccc(OC/C=C(/c2ccc(Cl)cc2)c2ccc(I)cc2)cc1C | 89 to 92 °C |
| COc1cn(-c2ccc(-n3cc(F)c(F)c3)cc2OCC(F)(F)F)nc(-c2ccnn2-c2ccccc2)c1=O | 220 to 222 °C |
| CN1CCCC1CCNc1nccc(Oc2ccc(NC(=O)c3cc(F)cc(N4CCOCC4)c3)c3ccccc23)n1 (centres undefined) | 100 to 101 °C |

Continued, values first:

| melting point | Structure (SMILES) |
| --- | --- |
| 86 to 87.5 °C | CCN(CC)CCNC(=O)N1CCC(S(=O)(=O)c2ccc(Cl)cc2)C1 (centres undefined) |
| 78 to 81 °C | CCOC(=O)C(=NOC)C1=CSc2ccccc2S1 |
| 80 to 83 °C | Fc1ccc(-c2cnc(SC(F)(F)F)nc2-c2ccc(F)cc2)cc1 |
| 75.5 to 77 °C | CCCCCCC1CCC(O)C(=O)O1 (centres undefined) |
| 57 °C | CCCCCCCCCCCCCCCCCCCCCCOC(=O)C(C)O (centres undefined) |
| 164 to 165 °C | COc1ccc(C(=O)Nc2ccccc2)cc1NCc1cc(Cl)cc(Cl)c1 |
| 169 to 171 °C | NC(=O)C1C=Cc2ccccc2N1C(=O)c1ccccc1 (centres undefined) |
| 180 to 182 °C | CCn1c(=O)c2c(nc(/C=C/c3ccc(OCC(=O)c4ccccc4)c(OC)c3)n2C)n(CC)c1=O |
| 126 to 128 °C | ON=Cc1cc(Br)ccc1Cl |
| 190 to 193 °C | O=S(=O)(c1ccccc1)c1ccc2c(c1)[C@@H](O)[C@H](Br)CCO2 (relative stereo) |
| 255 to 268 °C | O=C1COC(=O)C1=Cc1ccc(C(=O)O)s1 |
| 165 to 167 °C | CCOc1cc2ncc(C#N)c(Nc3ccc(OCc4cccc(F)c4)c(Cl)c3)c2cc1NC(=O)/C=C/CN(C)C |
| 68 to 70 °C | Cc1ccc([N+](=O)[O-])c(OC2CCOC2=O)c1 (centres undefined) |
| 132 to 134 °C | Nc1cc(Cl)c(Cl)c(Br)c1[N+](=O)[O-] |
| 257 to 259 °C | O=C(NCc1ccc(Cl)cc1)c1cnc2c(I)cc(CC3CCOCC3)cc2c1O |
| 95 to 105 °C | CC(C)(COc1ccc(CNC(=O)C2Cc3ccccc3N2S(=O)(=O)c2ccc(-c3cccc(C(F)(F)F)c3)cc2)cc1)C(=O)O (centres undefined) |
| 123 to 125 °C | NS(=O)(=O)c1ccccc1CSC1=NCCS1 |
| 205 °C | CCS(=O)(=O)Nc1cnc(N2CCC(C(=O)O)CC2)nc1NCc1ccccc1 |
| 167 °C | COc1ccc2ccc(N3C(=O)c4ccccc4C3OCC(=O)N3CCC(O)CC3)nc2n1 (centres undefined) |
| 254 °C | O=C(OCc1ccccc1)c1n[nH]c2c(=O)[nH]c3cc(Cl)ccc3c(=O)c12 |
| 142 to 144 °C | O=Cc1cc2sc3ccccc3c2c2ccccc12 |

| melting point | Structure (SMILES) |
| --- | --- |
| 129 to 130 °C | CC(=O)OCC1OC(n2c(Cl)nc3c(Br)c(Br)ccc32)C(OC(C)=O)C1OC(C)=O (centres undefined) |
| 35 to 36 °C | CCCCCCCCCCCCCCOc1ccccc1CBr |
| 178 to 180 °C | CC(=O)CCCCC(=O)Nc1ccc(CC(NC(C)=O)C(=O)NCC(=O)OCc2ccccc2)cc1 (centres undefined) |
| 82 to 83 °C | ClCCCOc1ccc(/C=C/c2nc3ccccc3o2)cc1 |
| 210 to 212 °C | Fc1cccnc1N1CCN(Cc2nc3ccccc3[nH]2)CC1 |
| 102 to 108 °C | CS(=O)(=O)c1ccc(-c2cc(CCO)sc2-c2ccc(F)cc2)cc1 |
| 94 to 95 °C | CCN1c2ccccc2Sc2cc(C=O)ccc21 |
| 109 to 113 °C | CN1CCN(c2cc(Cl)cc3c2c(=O)n(Cc2ccc([N+](=O)[O-])cc2)c(=O)n3Cc2ccccc2)CC1 |
| 60 °C | COC(=O)N=C(N(C)C)N(C)C(=O)NC1CCCCC1 |
| 121 to 122 °C | Cc1cc2c(cc1C(C)SCC(N)=O)OCO2 (centres undefined) |
| 214 to 216 °C | O=C1NC(=O)c2c1c(-c1ccccc1)cc1c2c2cc(O)ccc2n1CCCCCCBr |
| 92.1 to 92.7 °C | CCOC(=O)Cc1c(C)[nH]c2cc(F)c(OC)c(F)c12 |
| 281 to 282 °C | Cn1c(=O)c(-c2ccc(Cl)cc2Cl)cc2c3cc(-c4ccn[nH]4)ccc3n(C)c21 |
| 118 to 120 °C | CCCCc1nc(Cl)c(C=O)n1Cc1ccc2oc(-c3ccccc3C#N)c(OC)c2c1 |
| 155 to 160 °C | Cc1c(Cc2ccccc2)c(=O)oc2cc(OCC(=N)NO)cc(OCC(=N)NO)c12 |
| 248 to 251 °C | CCOc1cc2ncc(C#N)c(Nc3ccc4c(c3)C(=O)NC4=O)c2cc1OCC |
| 186 °C | COCCOc1ccc(/C=C/C(=O)NS(=O)(=O)c2ccc(C(F)(F)F)cc2)c(Oc2ncc(C(F)(F)F)cc2Cl)c1 |
| 98 to 100 °C | CS(=O)(=O)c1ccc(-c2oc3ccccc3c(=O)c2-c2ccc(F)cc2)cc1 |
| 144 to 146 °C | O=C(Cn1ccnc1)c1ccc(-c2ccncc2)cc1 |
| 136 to 137 °C | CC1CCCCN1c1nc(N)nc(-c2cc(Cl)ccc2Cl)n1 (centres undefined) |
